# Data reported in US20040082623A1, “Fmoc-l-leucine and derivatives thereof as ppar-gamma agonists” (priority 2003, published 2004).
# Legend:
# hPPARγ LBD = molecular target: T1, hPPARγ LBD (Homo sapiens, UniProt P37231); test: ESI-mass spectrometry of ligand binding to PPARγ LBD
# T1 construct: Human PPARγ (aa. 203 to 477 of PPARγ) was subcloned into the pET15b; His-tag (N); made in house
# T1 sequence (P37231 203-477 isoform P37231-2): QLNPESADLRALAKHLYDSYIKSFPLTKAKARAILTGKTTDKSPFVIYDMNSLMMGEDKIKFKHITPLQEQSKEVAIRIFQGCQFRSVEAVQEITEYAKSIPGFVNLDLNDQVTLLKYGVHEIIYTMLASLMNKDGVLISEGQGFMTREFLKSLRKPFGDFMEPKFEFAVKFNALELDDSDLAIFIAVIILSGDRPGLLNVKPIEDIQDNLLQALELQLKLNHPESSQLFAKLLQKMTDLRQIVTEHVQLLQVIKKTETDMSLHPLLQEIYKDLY
# Excerpt: FIG. 5: Two molecules of F-L-Leu bind to a single PPARγ molecule. ESI-mass spectrometry analysis.
# The p300Nt-GST, fusion protein was generated by cloning the N-terminal part of the p300 protein (a.a. 2 to 516) downstream of the glutathione-S-transferase (GST) protein in the pGex-T1 vector (Pharmacia, Orsay, France). The fusion proteins were then expressed in Escherichia coli and purified on a glutathione affinity matrix (Pharmacia). Human PPARγ (aa. 203 to 477 of PPARγ) was subcloned into the pET15b (Novagen, Madison, Wis.) expression vector. The his-tagPPARγ2DE203-477 proteins were produced as follow. The protein was purified using a metal chelate affinity column with an affinity column Co^2+ coupled agarose (High Trap chelatin, Pharmacia). The protein was eluted with 20 mM Tris-HCl, […], 130 mM imidazole and 1-2 propanediol 2.5% (pH 8.5). A second purification step was made by gel filtration (Superdex 200 16/60, Pharmacia). The protein was eluted with 20 mM Tris-HCl, 100 mM NaCl, 5 mM DTT and 1-2 propanediol 2,5% (pH 8.5). […]
# Electrospray ionization (ESI) mass spectrometry of hPPARγ LBD (amino acid 203 t ? 477) was used to identify the specific binding of F-L-Leu with PPARγ (FIG. 5). […] The mass of the receptor wa ? determined after incubation by ESI-mass spectrometry.
# PPARγ2 [1] = molecular target: T2, PPARγ2 (Homo sapiens, UniProt P37231); test: Transient transfection, PPARγ2 reporter (luciferase/β-galactosidase) in Hep G2 cells; format: cell-based; set-up: a construct containing the entire cDNA of the human PPARγ2 (hPPARγ2); expressed in transfected cells; host or cells: Hep G2
# T2 sequence (P37231 1-505): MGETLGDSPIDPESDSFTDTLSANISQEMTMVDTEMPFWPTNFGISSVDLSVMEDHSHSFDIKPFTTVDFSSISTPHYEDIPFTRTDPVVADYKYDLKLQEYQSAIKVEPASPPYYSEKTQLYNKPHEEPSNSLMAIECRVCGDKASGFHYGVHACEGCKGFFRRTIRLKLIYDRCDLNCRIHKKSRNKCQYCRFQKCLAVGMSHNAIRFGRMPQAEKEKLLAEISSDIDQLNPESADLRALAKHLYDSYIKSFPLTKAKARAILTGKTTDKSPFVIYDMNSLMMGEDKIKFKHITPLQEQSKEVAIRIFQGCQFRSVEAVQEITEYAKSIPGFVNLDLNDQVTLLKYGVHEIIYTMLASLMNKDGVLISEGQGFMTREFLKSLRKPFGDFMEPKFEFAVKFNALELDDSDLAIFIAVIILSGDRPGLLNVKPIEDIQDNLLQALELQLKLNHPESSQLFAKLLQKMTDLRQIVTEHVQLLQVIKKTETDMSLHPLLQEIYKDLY
# Method: Hep G2 cells were co-transfected with an expression vector for PPARγ2 (0.1 μg/well), pGL3-(Jwt)3TKLuc reporter construct (0.5 μg/well), and pCMV-βGal (0.5 μg/well), as a control of transfection efficiency (0.5 μg/well). The were then grown during 24 h in the presence or absence of indicated compound Activation is expressed as relative luciferase activity/β-galactosidase activity. Each point was performed in triplicate. This figure is representative of three independent experiments.
# (§1) RK13 cells (A and D), CV1 cells (B) or Hep G2 cells (C) were co-transfected with an expression vector for PPARγ2 (0.1 μg/well), pGL3-(Jwt)3TKLuc reported construct (0.5 μg/well), and pCMV-βGal (0.5 μg/well), as a control of transfection efficiency (0.5 μg/well). They were then grown during 24 h in the presence or absence of indicated compound. Activation is expressed as relative luciferase activity/β ? galactosidase activity. Each point was performed in triplicate, and each figure i ? representative of four independent experiments.
# (§2) The CV1, RK-13, and Hep G2 cell lines were obtained from ATCC (Rockville, Md.). Cells were maintained in Dulbecco's modified Eagle's minimal essential medium (DMEM) supplemented with 10% fetal calf serum (FCS), L-glutamine, and antibiotics. Transfections with chloramphenicol acetyltransferase (CAT) or luciferase (luc.) reporter constructs were carried out exactly as described previously (Schoonjans et al., 1996). The pGL3-(Jwt)3TKLuc and the pGL3-(Jwt)3TKCAT reporter constructs contain both three tandem repeats of the J site of the apolipoprotein A-II promoter cloned upstream of the herpes simplex virus thymidine kinase (TK) promoter and the luciferase or the CAT reporter genes respectively (Vu-Dac et al., 1995). The following expression vectors were used; pSG5-hPPARγ2, a construct containing the entire cDNA of the human PPARγ2 (hPPARγ2) (Fajas et al., 1997); pSG5-mPPARα (Isseman et al., 1993); and pCMV-βGal, as a control of transfection efficiency.
# PPARγ2 [2] = molecular target: T2, PPARγ2; test: Transient transfection, PPARγ2 reporter in RK13 cells; format: cell-based; set-up: a construct containing the entire cDNA of the human PPARγ2 (hPPARγ2); expressed in transfected cells; host or cells: Hep G2, RK13 or CV1 cells
# Method: as §1, §2
compound,measurement,setting,value
"CC(C)CC(NC(=O)OCC1c2ccccc2-c2ccccc21)C(=O)O [F-L-Leu, N-(9-fluroroenylmethyloxycarbonyl)-L-Leucine]",PPARγ species detected,"hPPARγ LBD; 1 equivalent of ligand per equivalent of PPARγ: unliganded, 1:1 and 1:2 complexes",three populations of PPARγ
same,number of ligand molecules bound per PPARγ LBD,"hPPARγ LBD; 8 equivalents of ligand per 1 equivalent of PPARγ, only complex detected",2
same,optimal concentration for PPARγ activation compared with PG J2,PPARγ2 [1]; HepG2,similar
same,optimal concentration relative to concentration of rosiglitazone or pioglitazone necessary to reach the same efficacy,"PPARγ2 [1]; HepG2, fold higher, pioglitazone data not shown",100 fold
same,PPARγ activation (relative luciferase activity/β-galactosidase activity),"PPARγ2 [1]; HepG2 cells, pSG5-hPPARγ2, 24 h, F-L-leu at 10^−5 M",Significant PPARγ activity
same,concentration required for optimal PPARγ activation,PPARγ2 [1]; human HepG2 cells,10^−5 M
same,potency in transfection experiments relative to rosiglitazone,"PPARγ2 [1]; summary statement, cell line not named",two orders of magnitude less potent
same,concentration giving maximal PPARγ activation,PPARγ2 [2]; RK13 cells,10^−5 M
same,modification of PPARγ activity when added to a saturating concentration of rosiglitazone,"PPARγ2 [2]; RK13 cells, 10^−5 M added",No significant modification
same,concentration of optimal PPARγ activity / activation,PPARγ2 [2]; rabbit kidney RK13 cells,10^−5 M
